This is an account of results in US10752587B2, “Homobispiperidinyl derivatives as liver X receptor beta agonists, compositions and their use” (Merck Sharp & Dohme Corp., priority 2015, dated 2020).

Molecules are shown by their SMILES.

In experiment [1] the target is T1, glutathione-S-transferase (GST) tagged LXRbeta LBD (ligand binding domain) (Homo sapiens, UniProt P55055).
T1 construct: purchased Invitrogen pv4658.pps
T1 sequence (P55055 222-460 limits assumed): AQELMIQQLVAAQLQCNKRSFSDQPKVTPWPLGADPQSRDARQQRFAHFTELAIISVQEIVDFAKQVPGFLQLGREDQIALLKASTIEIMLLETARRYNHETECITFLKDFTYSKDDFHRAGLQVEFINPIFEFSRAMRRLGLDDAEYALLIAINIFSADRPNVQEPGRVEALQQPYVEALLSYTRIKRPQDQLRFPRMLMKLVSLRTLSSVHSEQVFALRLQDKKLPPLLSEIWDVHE
Briefly: LanthaScreen TR-FRET Liver X Receptor Coactivator Assay, co-activator recruitment to LXRbeta LBD. In kind it is biochemical. To be noted: for Emax: read-out: LXR beta Activity @ max dose (%); for EC50: potency (Inflection Point, IP), co-activator recruitment to LXRbeta LBD, in relation to T0901317, read-out: LXR beta IP. The gist of the method:
(§1)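 Efficacy (Emax) and inflection-point potency were scaled to reference agonist T0901317, acting on both LXR subtypes. Ligand-driven coactivator peptide recruitment was detected by TR-FRET after room-temperature incubation with terbium anti-GST antibody.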
(TR-FRET usually uses a lanthanide donor and a delayed reading to cut background.)

Experiment [2] deals with T2, glutathione-S-transferase (GST) tagged LXRalpha LBD (ligand binding domain) (Homo sapiens, UniProt Q13133).
T2 construct: purchased Invitrogen pv4655
T2 sequence (Q13133 209-447 limits assumed): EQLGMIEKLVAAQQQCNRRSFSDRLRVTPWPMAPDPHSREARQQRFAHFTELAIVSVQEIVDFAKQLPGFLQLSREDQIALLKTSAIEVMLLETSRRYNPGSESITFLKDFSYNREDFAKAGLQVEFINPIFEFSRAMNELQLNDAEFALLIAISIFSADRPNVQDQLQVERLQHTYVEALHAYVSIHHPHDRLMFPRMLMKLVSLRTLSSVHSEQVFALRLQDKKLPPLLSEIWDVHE
Briefly: LanthaScreen TR-FRET Liver X Receptor Coactivator Assay, co-activator recruitment to LXRalpha LBD. In kind it is biochemical. To be noted: for Emax: read-out: LXR alpha Activity @ max dose (%); for EC50 / LXR alpha IP (nM): potency (Inflection Point, IP), co-activator recruitment to LXRalpha LBD, in relation to T0901317; for EC50: read-out: LXR alpha IP. The method, boiled down:
as §1

The mark [3] stands for this setting: efficacy at max dose, in relation to reference dual agonist T0901317.

As for `CN(C)C(=O)c1ccc(N2CCC(CC3CN(C(=O)[C@](O)(c4ccccc4)C(F)(F)F)C3)CC2)cc1Cl` [Example 2-58, 2-chloro-N,N-dimethyl-4-[4-({1-[(2R)-3,3,3-trifluoro-2-hydroxy-2-phenylpropanoyl]azetidin-3-yl}methyl)piperidin-1-yl]benzamide], the Emax in experiment [1] (setting [3]) is 88%; in experiment [2] (setting [3]), 38%. Further, the results for the EC50 in experiment [1] and in experiment [2] were 16 nM and 951 nM, respectively.
`COc1cccc([C@@](O)(C(=O)N2CC(CC3CCN(c4ccc(C(=O)N(C)C)c(Cl)c4)CC3)C2)C(F)(F)F)c1` [Example 2-59, 2-chloro-N,N-dimethyl-4-[4-({1-[(2R)-3,3,3-trifluoro-2-hydroxy-2-(3-methoxyphenyl)propanoyl]azetidin-3-yl}methyl)piperidin-1-yl]benzamide]: the Emax in experiment [1] (setting [3]) was 62%; in experiment [2] (setting [3]), 3%. For the same molecule, the EC50 in experiment [1] came to 18 nM. Besides, in experiment [2], the “LXR alpha IP (nM)” value is reported as “NO IP”.
The like results for `CC(C)Oc1cccc([C@@](O)(C(=O)N2CC(CC3CCN(c4ccc(C(=O)N(C)C)c(Cl)c4)CC3)C2)C(F)(F)F)c1` [Example 2-60, 2-chloro-N,N-dimethyl-4-{4-[(1-{(2R)-3,3,3-trifluoro-2-hydroxy-2-[3-(1-methyl-ethoxy)phenyl]propanoyl}azetidin-3-yl)methyl]piperidin-1-yl}benzamide] were, in that order, 66%, 2%, 26 nM and “NO IP”.
With `COc1cc(F)cc([C@@](O)(C(=O)N2CC(CC3CCN(c4ccc(C(=O)N(C)C)c(Cl)c4)CC3)C2)C(F)(F)F)c1` [Example 2-61, 2-chloro-N,N-dimethyl-4-[4-({1-[(2R)-3,3,3-trifluoro-2-(3-fluoro-5-methoxyphenyl)-2-hydroxy-propanoyl]azetidin-3-yl}methyl)piperidin-1-yl]benzamide], the Emax in experiment [1] (setting [3]) came out at 74%; in experiment [2] (setting [3]), 21%. Moreover, the EC50 stood at 7 nM in experiment [1] and 277 nM in experiment [2].
As for `CCOc1cccc([C@@](O)(C(=O)N2CC(CC3CCN(c4ccc(C(=O)N(C)C)c(Cl)c4)CC3)C2)C(F)(F)F)c1` [Example 2-62, 2-chloro-4-[4-({1-[(2R)-2-(3-ethoxy-phenyl)-3,3,3-trifluoro-2-hydroxy-propanoyl]azetidin-3-yl}methyl)piperidin-1-yl]-N,N-dimethyl-benzamide], the Emax in experiment [1] (setting [3]) worked out at 71%; in experiment [2] (setting [3]), 0%. Also, the EC50 in experiment [1] came out at 20 nM. For the same molecule, in experiment [2], the “LXR alpha IP (nM)” value is given as “NO IP”.
For the molecule `CN(C)C(=O)c1ccc(N2CCC(CC3CN(C(=O)[C@](O)(c4cccc(OC(F)(F)F)c4)C(F)(F)F)C3)CC2)cc1Cl` [Example 2-63, 2-chloro-N,N-dimethyl-4-{4-[(1-{(2R)-3,3,3-trifluoro-2-hydroxy-2-[3-(trifluoro-methoxy)phenyl]propanoyl}azetidin-3-yl)methyl]piperidin-1-yl}benzamide], the values for the Emax in experiment [1] (setting [3]) and in experiment [2] (setting [3]) were 79% and 22%, respectively. In addition, the EC50 in experiment [1] stood at 21 nM; in experiment [2] it was 1510 nM.
The like results for `CCc1cccc([C@@](O)(C(=O)N2CC(CC3CCN(c4ccc(C(=O)N(C)C)c(Cl)c4)CC3)C2)C(F)(F)F)c1` [Example 2-64, 2-chloro-4-[4-({1-[(2R)-2-(3-ethyl-phenyl)-3,3,3-trifluoro-2-hydroxy-propanoyl]azetidin-3-yl}methyl)piperidin-1-yl]-N,N-dimethyl-benzamide] were, in that order, 75%, 18%, 30 nM and 1070 nM.
The like results for `CN(C)C(=O)c1ccc(N2CCC(CC3CN(C(=O)C(O)(c4cccc(Cl)c4)C(F)(F)F)C3)CC2)cc1Cl` (centres unmarked) [Example 2-65, 2-chloro-4-[4-({1-[2-(3-chlorophenyl)-3,3,3-trifluoro-2-hydroxy-propanoyl]azetidin-3-yl}methyl)piperidin-1-yl]-N,N-dimethyl-benzamide] were, in that order, 89%, 35%, 17 nM and 694 nM.
As for `CN(C)C(=O)c1ccc(N2CCC(CC3CN(C(=O)C(O)(c4cccc(C(F)(F)F)c4)C(F)(F)F)C3)CC2)cc1Cl` (centres unmarked) [Example 2-66, 2-chloro-N,N-dimethyl-4-{4-[(1-{3,3,3-trifluoro-2-hydroxy-2-[3-(trifluoromethyl)phenyl]propanoyl}azetidin-3-yl)methyl]piperidin-1-yl}benzamide], the Emax in experiment [1] (setting [3]) amounted to 69%; in experiment [2] (setting [3]), 14%. The EC50 in experiment [1] turned out to be 50 nM. For the same molecule, the “LXR alpha IP (nM)” value in experiment [2] is reported as “NO IP”.
The like results for `CN(C)C(=O)c1ccc(N2CCC(CC3CN(C(=O)[C@](O)(c4cc(Cl)cc(Cl)c4)C(F)(F)F)C3)CC2)cc1Cl` [Example 2-67, 2-chloro-4-[4-({1-[(2R)-2-(3,5-dichloro-phenyl)-3,3,3-trifluoro-2-hydroxy-propanoyl]azetidin-3-yl}methyl)piperidin-1-yl]-N,N-dimethyl-benzamide] were, in that order, 77%, 9%, 19 nM and “NO IP”.
For the molecule `CN(C)C(=O)c1ccc(N2CCC(CC3CN(C(=O)[C@](O)(c4cccc(OC(F)(F)F)c4)C(F)(F)F)C3)CC2)cc1Cl` [Example 2-68, 2-chloro-N,N-dimethyl-4-{4-[(1-{(2R)-3,3,3-trifluoro-2-hydroxy-2-[3-(trifluoro-methoxy)phenyl]propanoyl}azetidin-3-yl)methyl]piperidin-1-yl}benzamide], the “LXR beta Activity @ max dose (%)” value in experiment [1] (setting [3]) came out at 63%. In experiment [1], the EC50 came out at 22 nM. Besides, the “LXR alpha Activity @ max dose (%)” value in experiment [2] (setting [3]) turned out to be 16%. Further, the “LXR alpha IP (nM)” value in experiment [2] is given as “NO IP”.
`CN(C)C(=O)c1ccc(N2CCC(CC3CN(C(=O)C(N)(c4ccccc4)C(F)(F)F)C3)CC2)cc1Cl` (centres unmarked) [Example 2-69, 4-(4-{[1-(2-amino-3,3,3-trifluoro-2-phenyl-propanoyl)azetidin-3-yl]methyl}piperidin-1-yl)-2-chloro-N,N-dimethyl-benzamide]: the figures for the Emax in experiment [1] (setting [3]) and in experiment [2] (setting [3]) were 112% and 16%, respectively. For the same molecule, the EC50 in experiment [1] is 1110 nM. Besides, in experiment [2], the “LXR alpha IP (nM)” value was “NO IP”.
Regarding `COc1cccc([C@@](O)(C(=O)N2CC(CC3CCN(c4ccc(C(=O)N(C)C)c(Cl)c4)CC3)C2)C(F)F)c1` [Example 2-70, 2-chloro-4-[4-({1-[(2R)-3,3-difluoro-2-hydroxy-2-(3-methoxy-phenyl)propanoyl]azetidin-3-yl}methyl)piperidin-1-yl]-N,N-dimethyl-benzamide], the Emax in experiment [1] (setting [3]) was 48%; in experiment [2] (setting [3]), 2%. Further, in experiment [1], the EC50 is 92 nM. For the same molecule, the “LXR alpha IP (nM)” value in experiment [2] is listed as “NO IP”.
The like results for `CN(C)C(=O)c1ccc(N2CCC(CC3CCN(C(=O)[C@](O)(c4ccccc4)C(F)(F)F)C3)CC2)cc1Cl` (stereo partly drawn) [Example 2-71, 2-chloro-N,N-dimethyl-4-[4-({1-[(2R)-3,3,3-trifluoro-2-hydroxy-2-phenyl-propanoyl]pyrrolidin-3-yl}methyl)piperidin-1-yl]benzamide] were, in that order, 64%, 9%, 84 nM and “NO IP”.
Regarding `COc1cccc([C@@](O)(C(=O)N2CCC(CC3CCN(c4ccc(C(=O)N(C)C)c(Cl)c4)CC3)C2)C(F)(F)F)c1` (stereo partly drawn) [Example 2-72, 2-chloro-N,N-dimethyl-4-[4-({1-[(2R)-3,3,3-trifluoro-2-hydroxy-2-(3-methoxy-phenyl)propanoyl]pyrrolidin-3-yl}methyl)piperidin-1-yl]benzamide], the values for the Emax in experiment [1] (setting [3]) and in experiment [2] (setting [3]) were 39% and 0%, respectively. Further, the EC50 in experiment [1] was 74 nM. The “LXR alpha IP (nM)” value in experiment [2] is listed as “NO IP”.
Take `CC(C)(C(=O)N1CCC(CC2CCN(c3cccc(S(C)(=O)=O)c3)CC2)CC1)c1ccccc1` [Example 2-73, 1-(2-methyl-2-phenylpropanoyl)-4-({1-[3-(methylsulfonyl)phenyl]piperidin-4-yl}methyl)piperidine]: the Emax was found to be 77% in experiment [1] (setting [3]) and 35% in experiment [2] (setting [3]). The EC50 in experiment [1] is 223 nM; in experiment [2] it was 5370 nM.
The like results for `CS(=O)(=O)c1cccc(N2CCC(CC3CCN(C(=O)[C@](O)(c4ccccc4)C(F)(F)F)CC3)CC2)c1` [Example 2-74, (2R)-1,1,1-trifluoro-3-[4-({1-[3-(methylsulfonyl)phenyl]piperidin-4-yl}methyl)piperidin-1-yl]-3-oxo-2-phenylpropan-2-ol] were, in that order, 87%, 38%, 39 nM and 444 nM.
